Experimental data reported in US5230998A, “Method for the prescreening of drugs targeted to the V3 hypervariable loop of the HIV-1 envelope glycoprotein gp 120” (priority 1991, dated 1993).
Converted amounts (≈) assume the structure as drawn. “Also recorded” adds a separate entry of the source.

How the values were obtained:
[1] = tested on: gp120 expressed on the surface of HIV-1-infected cells; conditions: literature; cited from earlier work
[2] = target: gp120 of the same virus subtype expressed in E. coli (HIV-1 M:B_ARV2/SF2, UniProt P03378); assay: Interaction of ATA with gp120 (non-glycosylated); format: binding, HIV-1 SF2; conditions: data not shown
Chain of gp120 of the same virus subtype expressed in E. coli (P03378 32-509): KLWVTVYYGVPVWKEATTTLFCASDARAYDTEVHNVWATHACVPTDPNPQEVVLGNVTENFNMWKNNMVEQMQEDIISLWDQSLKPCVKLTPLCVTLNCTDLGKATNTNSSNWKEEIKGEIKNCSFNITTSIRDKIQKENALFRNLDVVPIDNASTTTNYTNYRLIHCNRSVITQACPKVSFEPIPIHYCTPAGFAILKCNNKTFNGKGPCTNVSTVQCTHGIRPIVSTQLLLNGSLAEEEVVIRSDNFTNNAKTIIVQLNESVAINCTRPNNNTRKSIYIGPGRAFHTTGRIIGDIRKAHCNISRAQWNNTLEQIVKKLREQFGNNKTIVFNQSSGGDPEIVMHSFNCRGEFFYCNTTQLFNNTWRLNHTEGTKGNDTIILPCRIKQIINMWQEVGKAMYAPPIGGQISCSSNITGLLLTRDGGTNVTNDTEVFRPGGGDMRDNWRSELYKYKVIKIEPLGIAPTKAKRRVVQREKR

[3] = target: T1, HIV-1 SC V3 hypervariable loop peptide (Human immunodeficiency virus type 1 (SC ISOLATE), UniProt P05878); assay: Reactivity/attachment of ATA with V3 hypervariable loop peptides of distinct HIV-1 isolates (FIG. 4); format: binding
T1 construct: cut from Env gp160
T1 sequence (P05878 296-330): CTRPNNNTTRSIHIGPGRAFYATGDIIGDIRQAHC
Procedure: (§1) FIG. 4 comprises bar graphs depicting the interaction of aurintricarboxylic acid (ATA) with full length V3 hypervariable loop peptides from gp120 of distinct HIV-1 isolates (clones). FIG. 4A: Inhibitory effects of ATA (50 μg/ml) on the reaction between peptide-coated wells and homologous anti-peptide antisera (diluted 1:1,000). FIG. 4B: attachment of ATA to distinct V3 hypervariable loop peptide-coated wells as determined by double antibody RIA using rabbit antiserum against ATA.
(§2) To define sites on gp120/gp41 reacting with ATA, the inhibitory effect of this compound was studied by RIA tests using gp120- and gp160-coated wells, respectively, and antisera (final dilutions 1:150) against synthetic peptides from the entire sequence of gp120/gp41 of HIV-1 BH 10. The preparation and biological properties of these antisera were described elsewhere (Neurath et al., (1990), J. Gen. Virol., 71, 85-95). Each of the antisera was diluted in a mixture of fetal bovine serum and goat serum (9:1) containing 0.1% Tween 20, adjusted to pH 8. ATA (final concentration 50 μg/ml) was added in one set of assays, but was omitted from a parallel set. After incubation overnight at 25° C., the plates were washed with TS. Attached rabbit IgG was detected using ^125 I-labeled anti-rabbit IgG, as described before (Neurath et al., 1990, J. Gen. Virol., 71, 85-95). Similarly, the inhibitory effect of ATA on the reaction of peptides derived from gp120/gp41 and of peptides derived from V3 hypervariable loops from gp120 of distinct HIV-1 isolates with the respective homologous anti-peptide antisera was studied. In the latter case, antisera were diluted 1:1,000 for the assays.
(§3) ATA was also added to a control peptide, (518-542), and to wells coated with gelatin only. After incubation for 4 hours at 20° C., excess ATA was removed, the wells were washed with TS and attached ATA was determined by double-antibody RIA using serial dilutions of the anti-ATA antiserum. […]

[4] = target: T2, HIV-1 JY-1 V3 hypervariable loop peptide (Human immunodeficiency virus type 1 lw12.3 isolate, UniProt Q70626); assay: as above; format: binding
T2 construct: cut from Env gp160
T2 sequence (Q70626 296-331): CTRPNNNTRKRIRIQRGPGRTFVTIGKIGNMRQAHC
Procedure: as §1, §2, §3

BH 10 peptide = target: T3, BH 10 peptide (Human immunodeficiency virus type 1 BH10, UniProt P03375); assay: Attachment of ATA to V3 hypervariable loop peptides of distinct HIV-1 isolates (FIG. 4B); format: binding, HIV-1 BH 10
T3 construct: cut from Env gp160
Procedure: as §1
ATA was also added to a control peptide, (518-542), and to wells coated with gelatin only. After incubation for 4 hours at 20° C., excess ATA was removed, the wells were washed with TS and attached ATA was determined by double-antibody RIA using serial dilutions of the anti-ATA antiserum. Similar tests were carried out with serum from the same rabbit before immunization with the ATA-BSA conjugate; the corresponding results (100-450 cpm) were subtracted from cpm corresponding to RIA results obtained with the anti-ATA antiserum. For additional assays aimed at determining the binding of ATA to synthetic peptides from gp120 and gp41 of HIV-1 BH 10 and to V3 hypervariable loop peptides from 20 additional HIV-1 isolates, anti-ATA antiserum was used at a final dilution of 1:800.

HIV-1 [5] = assay: HIV-1 infection marker: viral DNA in ATA-treated cultures; format: cell-based
From the text: The combined effects of AZT and ATA, and other compounds shown to be effective in Table 1, hereinbelow, against HIV-1 are also contemplated by the present invention, since synergistic drug combinations would offer means for alleviating toxicity due to AZT, observed in clinical settings. Contemplated combinations include, for example, AZT+ATA, AZT+chlorin e6; AZT+deuteroporphyrin IX, 2,4(4,2) hydroxyethyvinyl; and AZT+meso-tetra(4-carboxyphenyl)porphine.

HIV-1 [6] = conditions: literature; listed as ATA; cited from earlier work
[7] = target: recombinant gp120 and recombinant CD4 (UniProt P01730+P03375); assay: Inhibition of the reaction between recombinant gp120 and recombinant CD4; format: binding; conditions: complete inhibition only at high concentrations; read-out: concentration for complete inhibition of the gp120-CD4 reaction
Procedure: However, ATA is an inefficient inhibitor of the reaction between recombinant gp120 and recombinant CD4, and complete inhibition of this reaction can be observed only at high concentrations of ATA (≈1 mg/ml).

HIV-1 [8] = assay: Antiviral activity: inhibition of P24 production in MT-2 cells; format: cell-based, HIV-1 IIIB
Procedure: All chemicals were tested at serial two-fold dilutions (1.25-80 μg/ml, prepared from a stock solution containing 10 mg/ml in dimethylsulfoxide). The chemicals were obtained from Aldrich, Milwaukee, Wis. or were synthesized. Their inhibitory activity was determined by two distinct methods, based on inhibition of synthesis of core protein P24 and on protection by the chemicals of cells against the cytopathic effect of HIV-1 (colorimetric method) respectively.
The chemicals were serially diluted in RPMI 1640 medium without phenol red (GIBCO, Grand Island, N.Y.) containing 10% fetal calf serum (FCS). Aliquots of the diluted solutions were added to wells of 96 well plates and mixed with an equal volume of diluted HIV-1 [multiplicity of infection (MOI) =0.0045]. After incubation for 1 hour at 37° C., 25 μl of polybrene (1 μg/ml) treated MT-2 cells (Harada, S., Koyanagi, Y., Yamamoto, N., (1985), "Infection of HTLV-III/LAV in HTLV-I-carrying Cells MT-2 and MT-4 and Application in a Plaque Assay", Science, 229, 563-566), (5,000 cells/well) were added. The mixture was incubated for 1 hour at 37° C. and the volume was adjusted with RPMI 1640 medium with 10% FCS to 200 μl. On the fourth day after incubation at 37° C., 100 μl of culture supernatants were collected from each well and equal volumes of fresh medium were added to the wells. The supernatants were assayed for P24 using a kit from Coulter Immunology (Hialeah, Fla.). On the sixth day, an indicator XTT tetrazolium dye (1 mg/ml; 50 μl/well; PolySciences, Inc., Warrington, Penna.) was added to the cells. After 4 hours, intracellular formazan was determined colorimetrically at 450 nm.
^c Chemicals with inhibitory activity in ELISA (RIA) tests were teste
^d EC50 = concentration at which the production of P24 was […]

| SMILES | inhibition of the reaction of gp120 on infected cells with monoclonal anti-gp120 antibodies [1] | interaction of ATA with gp120 [2] | reactivity of ATA with V3 hypervariable loop peptide ([3]; FIG. 4) | ATA binding to V3 peptide ([3]; FIG. 4B) | reactivity of ATA with V3 hypervariable loop peptide [4] | ATA binding to V3 peptide (BH 10 peptide) | viral DNA in treated cultures (HIV-1 [5]) | inhibition of HIV-1 replication / antiviral activity (HIV-1 [6]) | IC100 [7] [µg/mL] | EC50 (HIV-1 [8]; Human immunodeficiency virus 1, MT2, read-out: EC50 (concentration at which the production of P24 was reduced to 50% of that detected in control cultures)) [µg/mL] | inhibition at 40 µg/mL (HIV-1 [8]; Human immunodeficiency virus 1, MT2, read-out: percentage of inhibition of P24 nucleoprotein production) [%] |
| --- | --- | --- | --- | --- | --- | --- | --- | --- | --- | --- | --- |
| O=C(O)C1=CC(=C(c2ccc(O)c(C(=O)O)c2)c2ccc(O)c(C(=O)O)c2)C=CC1=O [substance #122, aurintricarboxylic acid] | inhibit the reaction of gp120 expressed on the surface of HIV-1-infected cells with monoclonal anti-gp120 antibodies | not with gp120 of the same virus subtype expressed in E. coli | minimal | bound very little ATA | minimal | bound the highest levels of ATA | almost undetectable | inhibited the replication of HIV-1 in vitro; also recorded: inhibit the cytopathogenicity and replication of the human immunodeficiency virus type 1 | ~1000 | – | – |
| C=Cc1c(C)c2cc3nc(c(CC(=O)O)c4[nH]c(cc5nc(cc1[nH]2)C(C)=C5CC)c(C)c4C(=O)O)[C@@H](CCC(=O)O)[C@@H]3C [substance #149, chlorine e6] | – | – | – | – | – | – | – | – | – | 0.8 (≈ 1.34 µM) | 100 |
